ChEMBL document CHEMBL4811297, “Low cytotoxic quinoline-4-carboxylic acids derived from vanillin precursors as potential human dihydroorotate dehydrogenase inhibitors” (Bioorg Med Chem Lett, 2021)

What was measured:
HaCaT = test: Antiproliferative activity against human HaCaT cells assessed as inhibition of cell proliferation; format: cell-based
[1] = Lipophilicity, log D of compound at pH 7.4 in octanol/phosphate buffer measured by shake flask method; format: physicochemical
[2] = target: Dihydroorotate dehydrogenase (quinone), mitochondrial (Homo sapiens, UniProt Q02127); test: Inhibition of human DHODH
Dihydroorotate dehydrogenase (quinone), mitochondrial, sequence (Q02127 whole entry): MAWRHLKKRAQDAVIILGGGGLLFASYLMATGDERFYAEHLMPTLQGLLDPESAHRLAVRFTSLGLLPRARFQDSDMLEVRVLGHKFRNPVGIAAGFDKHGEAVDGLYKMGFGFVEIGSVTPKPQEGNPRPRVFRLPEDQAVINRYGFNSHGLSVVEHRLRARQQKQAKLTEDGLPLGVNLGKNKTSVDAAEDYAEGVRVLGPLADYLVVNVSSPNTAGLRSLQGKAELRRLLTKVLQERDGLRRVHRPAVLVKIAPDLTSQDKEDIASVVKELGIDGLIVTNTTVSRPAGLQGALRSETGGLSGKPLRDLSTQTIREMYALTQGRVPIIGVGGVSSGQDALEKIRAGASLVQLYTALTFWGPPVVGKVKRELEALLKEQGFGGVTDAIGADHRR

| SMILES | logD [1] | IC50 [2] [µM] | IC50 (HaCaT) [µM] |
| --- | --- | --- | --- |
| COc1cc(-c2cc(C(=O)O)c3ccccc3n2)ccc1OCC(=O)NCc1ccco1 | -0.3 | 1 | > 300 |
| COc1cc(-c2cc(C(=O)O)c3ccccc3n2)ccc1OCC(=O)Nc1ccc(C)cc1 | 1.2 | 3.8 | > 300 |
| COc1cc(-c2cc(C(=O)O)c3ccccc3n2)ccc1OCC(=O)Nc1cccc(Cl)c1 | 2.3 | 0.5 | 192 |
| COc1cc(-c2cc(C(=O)O)c3ccccc3n2)ccc1OCC(=O)Nc1cccc(C(F)(F)F)c1 | 1.3 | 0.5 | 160 |
| COc1cc(-c2cc(C(=O)O)c3ccccc3n2)ccc1OCC(=O)NCc1cccs1 | 0 | 3.1 | > 300 |
| CCCCCCNC(=O)COc1ccc(-c2cc(C(=O)O)c3ccccc3n2)cc1OC | 1 | 2.7 | > 300 |
| COc1cc(-c2cc(C(=O)O)c3ccccc3n2)ccc1OCC(=O)NC12CC3CC(CC(C3)C1)C2 | 1 | 1.7 | 180 |
| COc1cc(-c2cc(C(=O)O)c3ccccc3n2)ccc1OCC(=O)NCc1ccccc1 | 0.4 | 3.7 | > 300 |
| COc1cc(-c2cc(C(=O)O)c3ccccc3n2)ccc1OCC(=O)Nc1ccc(Cl)cc1 | 1.5 | 0.5 | > 300 |
| COc1cc(-c2cc(C(=O)O)c3ccccc3n2)ccc1OCC(=O)NCc1cccnc1 | -0.8 | 0.7 | > 300 |
| COc1cc(-c2cc(C(=O)O)c3ccccc3n2)ccc1OCC(=O)NC1CCCCC1 | 0.8 | 1.7 | > 300 |
| COc1cc(-c2cc(C(=O)O)c3ccccc3n2)ccc1OCC(=O)Nc1ccc(C(F)(F)F)cc1 | 1.6 | 2.4 | 150 |
| COc1cc(-c2cc(C(=O)O)c3ccccc3n2)ccc1OCC(=O)Nc1cccc(C)c1 | 1.5 | 1.9 | 225 |

Second part, led by results:

| logD [1] | IC50 [2] [µM] | SMILES | IC50 (HaCaT) [µM] |
| --- | --- | --- | --- |
| 0.9 | 0.5 | COc1cc(-c2cc(C(=O)O)c3ccccc3n2)ccc1OCC(=O)Nc1ccccc1F | 161 |
| 1.6 | 2.1 | COc1cc(-c2cc(C(=O)O)c3ccccc3n2)ccc1OCC(=O)Nc1cccc(F)c1 | 148 |
| 0.8 | 5.9 | COc1cc(-c2cc(C(=O)O)c3ccccc3n2)ccc1OCC(=O)Nc1ccccc1C | 230 |
| 1.3 | 0.3 | COc1cc(-c2cc(C(=O)O)c3ccccc3n2)ccc1OCC(=O)Nc1ccccc1C(F)(F)F | 102 |
| 1.6 | 1.3 | COc1cc(-c2cc(C(=O)O)c3ccccc3n2)ccc1OCC(=O)Nc1ccccc1Cl | 210 |
| 0.7 | 3.9 | COc1cc(-c2cc(C(=O)O)c3ccccc3n2)ccc1OCC(=O)Nc1ccccc1 | > 300 |
| 1.1 | 1.6 | COc1cc(-c2cc(C(=O)O)c3ccccc3n2)ccc1OCC(=O)Nc1ccc(F)cc1 | 286 |
